Laboratory results as given in ChEMBL document CHEMBL4411307, “N,N'-diaryl-bishydrazones in a biphenyl platform: Broad spectrum antifungal agents” (Eur J Med Chem, 2019).
pIC50: −log10 of the molar value. In brackets after ≈: the same amount, converted by molar mass. Activity calls are given as the source filed them. The calls are words filed in the database; no cut-off is given here.

How the values were obtained:
[1] = test system: Listeria monocytogenes; assay: Antibacterial activity against Listeria monocytogenes; assay type: functional, organism-based
[2] = test system: Staphylococcus aureus; assay: Antibacterial activity against methicillin-resistant Staphylococcus aureus; assay type: functional, organism-based
[3] = test system: Enterococcus; assay: Antibacterial activity against vancomycin-resistant Enterococcus; assay type: functional, organism-based
[4] = test system: Candida albicans; assay: Antifungal activity against fluconazole/ITC-resistant Candida albicans ATCC 10231 measured after 48 hrs by CLSI M27-A3 protocol based method; assay type: functional; settings: ATCC 10231, 48 h
[5] = test system: Candida albicans; assay: Antifungal activity against fluconazole/ITC-resistant Candida albicans ATCC 64124 measured after 48 hrs by CLSI M27-A3 protocol based method; assay type: functional; settings: ATCC 64124, 48 h
[6] = test system: Candida albicans; assay: Antifungal activity against fluconazole/ITC-susceptible Candida albicans ATCC MYA-2876 measured after 48 hrs by CLSI M27-A3 protocol based method; assay type: functional; settings: ATCC MYA-2876, 48 h
[7] = test system: Candida albicans; assay: Antifungal activity against fluconazole/ITC-resistant Candida albicans ATCC 90819 measured after 48 hrs by CLSI M27-A3 protocol based method; assay type: functional; settings: ATCC 90819, 48 h
[8] = test system: Candida albicans; assay: Antifungal activity against fluconazole/ITC-susceptible Candida albicans ATCC MYA-2310 measured after 48 hrs by CLSI M27-A3 protocol based method; assay type: functional; settings: ATCC MYA-2310, 48 h
[9] = test system: Candida albicans; assay: Antifungal activity against fluconazole/ITC-resistant Candida albicans ATCC MYA-1237 measured after 48 hrs by CLSI M27-A3 protocol based method; assay type: functional; settings: ATCC MYA-1237, 48 h
[10] = test system: Candida albicans; assay: Antifungal activity against fluconazole/ITC-resistant Candida albicans ATCC MYA-1003 measured after 48 hrs by CLSI M27-A3 protocol based method; assay type: functional; settings: ATCC MYA-1003, 48 h
[11] = test system: Nakaseomyces glabratus; assay: Antifungal activity against Candida glabrata ATCC 2001 measured after 48 hrs by CLSI M27-A3 protocol based method; assay type: functional; settings: CBS 138, 48 h
[12] = test system: Pichia kudriavzevii; assay: Antifungal activity against Candida krusei ATCC 6258 measured after 48 hrs by CLSI M27-A3 protocol based method; assay type: functional; settings: ATCC 6258, 48 h
[13] = test system: Candida parapsilosis; assay: Antifungal activity against Candida parapsilosis ATCC 22019 measured after 48 hrs by CLSI M27-A3 protocol based method; assay type: functional; settings: Lodderomyces parapsilosis, ATCC 22019, 48 h
[14] = test system: Aspergillus flavus; assay: Antifungal activity against Aspergillus flavus ATCC MYA-3631 measured after 48 hrs by CLSI M38-A2 protocol based method; assay type: functional; settings: ATCC MYA-3631, 48 h
[15] = test system: Aspergillus nidulans; assay: Antifungal activity against Aspergillus nidulans ATCC 38163 measured after 48 hrs by CLSI M38-A2 protocol based method; assay type: functional; settings: ATCC 38163, 48 h
[16] = test system: Aspergillus terreus; assay: Antifungal activity against Aspergillus terreus ATCC MYA-3633 measured after 48 hrs by CLSI M38-A2 protocol based method; assay type: functional; settings: ATCC MYA-3633, 48 h
[17] = test system: A549; assay: Cytotoxicity against human A549 cells after 24 hrs by resazurin based assay; assay type: cell-based; settings: a549, 24 h
[18] = test system: BEAS-2B; assay: Cytotoxicity against human BEAS2B cells after 24 hrs by resazurin based assay; assay type: cell-based
[19] = Selectivity index, ratio of CC50 for human A549 cells to MIC for fluconazole/ITC-resistant Candida albicans ATCC 10231; assay type: toxicity; settings: read-out: Selectivity Index
[20] = Selectivity index, ratio of CC50 for human A549 cells to MIC for fluconazole/ITC-resistant Candida albicans ATCC 64124; assay type: toxicity; settings: read-out: Selectivity Index
[21] = Selectivity index, ratio of CC50 for human A549 cells to MIC for fluconazole/ITC-susceptible Candida albicans ATCC MYA-2876; assay type: toxicity; settings: read-out: Selectivity Index
[22] = Selectivity index, ratio of CC50 for human A549 cells to MIC for fluconazole/ITC-resistant Candida albicans ATCC 90819; assay type: toxicity; settings: read-out: Selectivity Index
[23] = Selectivity index, ratio of CC50 for human A549 cells to MIC for fluconazole/ITC-susceptible Candida albicans ATCC MYA-2310; assay type: toxicity; settings: read-out: Selectivity Index
[24] = Selectivity index, ratio of CC50 for human A549 cells to MIC for fluconazole/ITC-resistant Candida albicans ATCC MYA-1237; assay type: toxicity; settings: read-out: Selectivity Index
[25] = Selectivity index, ratio of CC50 for human A549 cells to MIC for fluconazole/ITC-resistant Candida albicans ATCC MYA-1003; assay type: toxicity; settings: read-out: Selectivity Index
[26] = Selectivity index, ratio of CC50 for human A549 cells to MIC for Candida glabrata ATCC 2001; assay type: toxicity; settings: read-out: Selectivity Index
[27] = Selectivity index, ratio of CC50 for human A549 cells to MIC for Candida krusei ATCC 6258; assay type: toxicity; settings: read-out: Selectivity Index
[28] = Selectivity index, ratio of CC50 for human A549 cells to MIC for Candida parapsilosis ATCC 22019; assay type: toxicity; settings: read-out: Selectivity Index
[29] = Selectivity index, ratio of CC50 for human A549 cells to MIC for Aspergillus flavus ATCC MYA-3631; assay type: toxicity; settings: read-out: Selectivity Index
[30] = Selectivity index, ratio of CC50 for human A549 cells to MIC for Aspergillus nidulans ATCC 38163; assay type: toxicity; settings: read-out: Selectivity Index
[31] = Selectivity index, ratio of CC50 for human A549 cells to MIC for Aspergillus terreus ATCC MYA-3633; assay type: toxicity; settings: read-out: Selectivity Index
[32] = Hemolytic activity in mouse RBC at […] after 1 hr relative to control; assay type: ADME, cell-based, Erythrocyte; settings: red blood cells (erythrocytes), read-out: Activity; further: tested at 0.48 µg/mL
[33] = Hemolytic activity in mouse RBC at […] ug/ml after 1 hr relative to control; assay type: ADME, cell-based, Erythrocyte; settings: red blood cells (erythrocytes), read-out: Activity
[34] = Hemolytic activity in mouse RBC at 1.95 ug/ml after 1 hr relative to control; assay type: ADME, cell-based, Erythrocyte; settings: red blood cells (erythrocytes), read-out: Activity
[35] = Hemolytic activity in mouse RBC at 3.9 ug/ml after 1 hr relative to control; assay type: ADME, cell-based, Erythrocyte; settings: red blood cells (erythrocytes), read-out: Activity
[36] = Hemolytic activity in mouse RBC at 7.8 ug/ml after 1 hr relative to control; assay type: ADME, cell-based, Erythrocyte; settings: red blood cells (erythrocytes), read-out: Activity
[37] = Hemolytic activity in mouse RBC at 31.3 ug/ml after 1 hr relative to control; assay type: ADME, cell-based, Erythrocyte; settings: red blood cells (erythrocytes), read-out: Activity
[38] = Hemolytic activity in mouse RBC at 62.5 ug/ml after 1 hr relative to control; assay type: ADME, cell-based, Erythrocyte; settings: red blood cells (erythrocytes), read-out: Activity
[39] = Selectivity index, ratio of compound concentration showing <20 to <30% hemolysis in mouse RBC to MIC for fluconazole/ITC-resistant Candida albicans ATCC 10231; assay type: toxicity; settings: red blood cells (erythrocytes), read-out: Selectivity Index
[40] = Selectivity index, ratio of compound concentration showing <20 to <30% hemolysis in mouse RBC to MIC for fluconazole/ITC-resistant Candida albicans ATCC 64124; assay type: toxicity; settings: red blood cells (erythrocytes), read-out: Selectivity Index
[41] = Selectivity index, ratio of compound concentration showing <20 to <30% hemolysis in mouse RBC to MIC for fluconazole/ITC-susceptible Candida albicans ATCC MYA-2876; assay type: toxicity; settings: red blood cells (erythrocytes), read-out: Selectivity Index
[42] = Selectivity index, ratio of compound concentration showing <20 to <30% hemolysis in mouse RBC to MIC for fluconazole/ITC-resistant Candida albicans ATCC 90819; assay type: toxicity; settings: red blood cells (erythrocytes), read-out: Selectivity Index
[43] = Selectivity index, ratio of compound concentration showing <20 to <30% hemolysis in mouse RBC to MIC for fluconazole/ITC-susceptible Candida albicans ATCC MYA-2310; assay type: toxicity; settings: mouse red blood cells (RBC), read-out: Selectivity Index
[44] = Selectivity index, ratio of compound concentration showing <20 to <30% hemolysis in mouse RBC to MIC for fluconazole/ITC-resistant Candida albicans ATCC MYA-1237; assay type: toxicity; settings: mouse red blood cells (RBC), read-out: Selectivity Index
[45] = Selectivity index, ratio of compound concentration showing <20 to <30% hemolysis in mouse RBC to MIC for fluconazole/ITC-resistant Candida albicans ATCC MYA-1003; assay type: toxicity; settings: mouse red blood cells (RBC), read-out: Selectivity Index
[46] = Selectivity index, ratio of compound concentration showing <20 to <30% hemolysis in mouse RBC to MIC for Candida glabrata ATCC 2001; assay type: toxicity; settings: mouse red blood cells (RBC), read-out: Selectivity Index
[47] = Selectivity index, ratio of compound concentration showing <20 to <30% hemolysis in mouse RBC to MIC for Candida krusei ATCC 6258; assay type: toxicity; settings: mouse red blood cells (RBC), read-out: Selectivity Index
[48] = Selectivity index, ratio of compound concentration showing <20 to <30% hemolysis in mouse RBC to MIC for Candida parapsilosis ATCC 22019; assay type: toxicity; settings: mouse red blood cells (RBC), read-out: Selectivity Index
[49] = Selectivity index, ratio of compound concentration showing <20 to <30% hemolysis in mouse RBC to MIC for Aspergillus flavus ATCC MYA-3631; assay type: toxicity; settings: mouse red blood cells (RBC), read-out: Selectivity Index
[50] = Selectivity index, ratio of compound concentration showing <20 to <30% hemolysis in mouse RBC to MIC for Aspergillus nidulans ATCC 38163; assay type: toxicity; settings: mouse red blood cells (RBC), read-out: Selectivity Index
[51] = Selectivity index, ratio of compound concentration showing <20 to <30% hemolysis in mouse RBC to MIC for Aspergillus terreus ATCC MYA-3633; assay type: toxicity; settings: mouse red blood cells (RBC), read-out: Selectivity Index
[52] = biological target: Voltage-gated inwardly rectifying potassium channel KCNH2 (Homo sapiens, UniProt Q12809); assay: Inhibition of [3H]-dofetilide binding to human ERG expressed in HEK293 cell membranes measured after 1 hr by liquid scintillation counting method
Chain of Voltage-gated inwardly rectifying potassium channel KCNH2 (Q12809 whole entry): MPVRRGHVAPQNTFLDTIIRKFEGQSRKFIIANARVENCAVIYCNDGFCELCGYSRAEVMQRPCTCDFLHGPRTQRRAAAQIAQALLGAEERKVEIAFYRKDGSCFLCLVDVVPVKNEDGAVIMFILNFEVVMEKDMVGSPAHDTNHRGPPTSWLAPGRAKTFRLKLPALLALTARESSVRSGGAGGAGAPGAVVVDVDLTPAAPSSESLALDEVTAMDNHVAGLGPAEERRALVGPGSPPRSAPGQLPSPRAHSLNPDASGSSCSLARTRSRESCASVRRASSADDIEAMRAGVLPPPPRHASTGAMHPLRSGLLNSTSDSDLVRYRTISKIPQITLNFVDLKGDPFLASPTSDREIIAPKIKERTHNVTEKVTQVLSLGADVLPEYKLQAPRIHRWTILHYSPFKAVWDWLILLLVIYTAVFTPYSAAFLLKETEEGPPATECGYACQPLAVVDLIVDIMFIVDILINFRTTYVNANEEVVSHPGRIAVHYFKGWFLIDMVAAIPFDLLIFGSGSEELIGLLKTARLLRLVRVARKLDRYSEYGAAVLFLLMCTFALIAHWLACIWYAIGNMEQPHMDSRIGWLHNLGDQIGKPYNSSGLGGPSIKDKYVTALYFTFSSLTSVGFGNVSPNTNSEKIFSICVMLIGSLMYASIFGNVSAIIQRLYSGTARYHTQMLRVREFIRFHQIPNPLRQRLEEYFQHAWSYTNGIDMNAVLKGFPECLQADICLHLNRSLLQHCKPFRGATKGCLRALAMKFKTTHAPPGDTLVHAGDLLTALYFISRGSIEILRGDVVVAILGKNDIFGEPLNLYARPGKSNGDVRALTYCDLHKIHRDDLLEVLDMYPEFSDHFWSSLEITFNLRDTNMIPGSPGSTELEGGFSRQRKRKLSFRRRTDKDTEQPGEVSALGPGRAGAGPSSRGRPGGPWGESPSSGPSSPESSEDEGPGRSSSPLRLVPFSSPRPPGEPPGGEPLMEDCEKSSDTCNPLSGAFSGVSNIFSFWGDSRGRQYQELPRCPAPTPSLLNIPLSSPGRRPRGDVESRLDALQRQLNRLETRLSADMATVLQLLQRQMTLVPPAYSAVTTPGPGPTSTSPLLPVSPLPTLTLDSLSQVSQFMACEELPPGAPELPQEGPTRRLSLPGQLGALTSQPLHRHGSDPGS

In the case of Fc1ccc(N/N=C/c2ccc(-c3cccc(/C=N/Nc4ccc(F)cc4)c3)cc2)cc1, the Activity [1] was “inactive”, the Activity [2] was “inactive” and the Activity [3] was “inactive”. It also gave an MIC [4] of 1.95 to 3.9 µg/mL (≈ 4.57 to 9.14 µM), an MIC [5] of 15.6 µg/mL (≈ 36.6 µM) and an MIC [6] of 7.8 µg/mL (≈ 18.3 µM). The MIC [7] was over 31.3 µg/mL, the MIC [8] was 7.8 µg/mL (≈ 18.3 µM) and the MIC [9] was 15.6 µg/mL (≈ 36.6 µM). The MIC [10] was 3.9 µg/mL (≈ 9.14 µM), the MIC [11] was over 31.3 µg/mL and the MIC [12] was over 31.3 µg/mL. It also gave an MIC [13] of 31.3 µg/mL (≈ 73.4 µM), an MIC [14] of 15.6 µg/mL (≈ 36.6 µM) and an MIC [15] of 3.9 µg/mL (≈ 9.14 µM). The MIC [16] was over 31.3 µg/mL, the CC50 [17] was over 31 µg/mL and the CC50 [18] was over 31 µg/mL. The selectivity ratio [19] was 16, the selectivity ratio [20] was 2 and the selectivity ratio [21] was 4. The selectivity ratio [22] was 1, the selectivity ratio [23] was 4 and the selectivity ratio [24] was 2. It also gave a selectivity ratio [25] of 8, a selectivity ratio [26] of 1 and a selectivity ratio [27] of 1. The selectivity ratio [28] was 1, the selectivity ratio [29] was 2 and the selectivity ratio [30] was 8. For the same molecule, the selectivity ratio [31] was 1, the hemolysis at 1 h, […] [32] was 0.1% and the hemolysis at 1 h, 15.6 ug/ml ([33]; at 15.6 µg/mL) was 9.9%. It also gave a hemolysis at 1 h, 0.975 ug/ml [33] of 0%, a hemolysis at 1 h, 1.95 ug/ml [34] of 6% and a hemolysis at 1 h, 3.9 ug/ml [35] of 4.3%. It also gave a hemolysis at 1 h, 7.8 ug/ml [36] of 9.5%, a hemolysis at 1 h, 31.3 ug/ml [37] of 14.4% and a hemolysis at 1 h, 62.5 ug/ml [38] of 26.1%. For the same molecule, the selectivity ratio [39] was 1 to 32, the selectivity ratio [40] was 1 to 32 and the selectivity ratio [41] was 1 to 32. For the same molecule, the selectivity ratio [42] was 1 to 32, the selectivity ratio [43] was 1 to 32 and the selectivity ratio [44] was 1 to 32. The selectivity ratio [45] was 1 to 32, the selectivity ratio [46] was 1 to 32 and the selectivity ratio [47] was 1 to 32. It also gave a selectivity ratio [48] of 1 to 32, a selectivity ratio [49] of 1 to 32 and a selectivity ratio [50] of 1 to 32. The selectivity ratio [51] was 1 to 32 and the pIC50 [52] was under 4.52.
